Data: ChEMBL document CHEMBL5715954, “Silencing c-Myc translation as a therapeutic strategy through targeting PI3Kδ and CK1ε in hematological malignancies” (Blood, 2017)

Key:
Design in all cases: scale not given: the % may be the effect or the level left
[1] = target: Tau-tubulin kinase 1 (Homo sapiens) (UniProt Q5TCY1); assay: Inhibition of human TTBK1 assessed as enzyme activity at 1 uM using myelin basic protein as substrate preincubated for 20 mins followed by [gamma-33P]-ATP addition and measured after 120 mins by radiometric Hot-SpotSM Kinase assay relative to control
Tau-tubulin kinase 1 (Homo sapiens), sequence (Q5TCY1 whole entry): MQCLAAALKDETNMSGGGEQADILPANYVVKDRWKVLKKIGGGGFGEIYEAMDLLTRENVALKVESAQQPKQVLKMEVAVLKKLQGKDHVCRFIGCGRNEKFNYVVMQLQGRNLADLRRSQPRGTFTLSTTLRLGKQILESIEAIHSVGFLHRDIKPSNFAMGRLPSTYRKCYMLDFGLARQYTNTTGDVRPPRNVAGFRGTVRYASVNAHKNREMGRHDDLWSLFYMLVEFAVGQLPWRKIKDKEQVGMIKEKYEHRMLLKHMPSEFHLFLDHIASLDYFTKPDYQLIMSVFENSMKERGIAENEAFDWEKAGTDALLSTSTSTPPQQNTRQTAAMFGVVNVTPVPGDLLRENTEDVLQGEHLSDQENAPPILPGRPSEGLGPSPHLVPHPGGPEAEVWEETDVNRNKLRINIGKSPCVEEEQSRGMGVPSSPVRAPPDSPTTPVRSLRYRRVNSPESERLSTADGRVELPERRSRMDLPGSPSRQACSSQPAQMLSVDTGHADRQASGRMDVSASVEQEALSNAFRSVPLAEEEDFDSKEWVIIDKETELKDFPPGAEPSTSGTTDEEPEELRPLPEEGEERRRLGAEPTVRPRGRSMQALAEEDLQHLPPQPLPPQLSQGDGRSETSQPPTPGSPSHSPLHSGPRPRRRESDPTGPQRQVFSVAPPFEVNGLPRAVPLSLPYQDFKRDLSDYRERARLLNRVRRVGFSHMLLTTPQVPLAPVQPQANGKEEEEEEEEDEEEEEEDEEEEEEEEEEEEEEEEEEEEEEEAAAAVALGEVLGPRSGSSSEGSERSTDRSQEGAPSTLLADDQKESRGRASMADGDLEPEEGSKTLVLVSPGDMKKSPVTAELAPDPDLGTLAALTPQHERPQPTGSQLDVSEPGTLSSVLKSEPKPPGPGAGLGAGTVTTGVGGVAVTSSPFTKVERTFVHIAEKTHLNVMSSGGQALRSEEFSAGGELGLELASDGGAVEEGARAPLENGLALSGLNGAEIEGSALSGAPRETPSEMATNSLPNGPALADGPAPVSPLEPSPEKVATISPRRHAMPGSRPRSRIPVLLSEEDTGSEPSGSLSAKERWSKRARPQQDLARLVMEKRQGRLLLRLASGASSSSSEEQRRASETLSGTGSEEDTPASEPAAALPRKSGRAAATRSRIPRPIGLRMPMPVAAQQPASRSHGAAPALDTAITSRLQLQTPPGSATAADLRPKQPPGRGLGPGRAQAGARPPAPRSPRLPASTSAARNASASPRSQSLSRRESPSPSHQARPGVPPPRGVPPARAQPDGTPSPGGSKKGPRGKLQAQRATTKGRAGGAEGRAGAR

[2] = target: Mitogen-activated protein kinase 8 (Homo sapiens) (UniProt P45983); assay: Inhibition of human JNK1-alpha1 assessed as enzyme activity at 1 uM using ATF2 as substrate preincubated for 20 mins followed by [gamma-33P]-ATP addition and measured after 120 mins by radiometric Hot-SpotSM Kinase assay relative to control
Mitogen-activated protein kinase 8 (Homo sapiens), sequence (P45983 whole entry): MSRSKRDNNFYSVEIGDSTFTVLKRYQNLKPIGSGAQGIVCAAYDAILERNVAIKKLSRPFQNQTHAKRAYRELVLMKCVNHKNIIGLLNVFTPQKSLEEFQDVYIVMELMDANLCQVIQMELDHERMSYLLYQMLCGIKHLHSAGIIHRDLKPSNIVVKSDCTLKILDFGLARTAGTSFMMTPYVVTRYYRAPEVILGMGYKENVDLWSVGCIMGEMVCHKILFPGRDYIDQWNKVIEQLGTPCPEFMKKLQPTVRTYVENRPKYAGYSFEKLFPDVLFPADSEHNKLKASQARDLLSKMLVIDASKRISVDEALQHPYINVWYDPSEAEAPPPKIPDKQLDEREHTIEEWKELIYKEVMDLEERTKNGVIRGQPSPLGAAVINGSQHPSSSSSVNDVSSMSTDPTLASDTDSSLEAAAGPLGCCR

[3] = target: Tyrosine-protein kinase FRK (Homo sapiens) (UniProt P42685); assay: Inhibition of human FRK assessed as enzyme activity at 1 uM using poly[Glu:Tyr] (4:1) as substrate preincubated for 20 mins followed by [gamma-33P]-ATP addition and measured after 120 mins by radiometric Hot-SpotSM Kinase assay relative to control
Tyrosine-protein kinase FRK (Homo sapiens), sequence (P42685 whole entry): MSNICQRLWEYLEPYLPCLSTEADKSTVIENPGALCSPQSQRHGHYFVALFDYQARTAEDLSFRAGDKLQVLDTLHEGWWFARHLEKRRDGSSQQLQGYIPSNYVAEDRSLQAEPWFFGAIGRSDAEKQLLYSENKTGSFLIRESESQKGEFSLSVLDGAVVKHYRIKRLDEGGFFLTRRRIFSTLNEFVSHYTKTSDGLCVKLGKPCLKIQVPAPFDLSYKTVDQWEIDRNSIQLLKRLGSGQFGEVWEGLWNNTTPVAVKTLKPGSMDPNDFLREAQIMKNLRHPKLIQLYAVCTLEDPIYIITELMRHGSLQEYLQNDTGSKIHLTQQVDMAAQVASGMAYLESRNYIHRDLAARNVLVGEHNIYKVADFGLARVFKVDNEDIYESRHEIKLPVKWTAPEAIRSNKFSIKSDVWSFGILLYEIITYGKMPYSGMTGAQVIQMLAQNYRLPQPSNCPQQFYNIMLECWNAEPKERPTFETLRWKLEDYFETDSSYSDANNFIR

[4] = target: T1, Serine/threonine-protein kinase ULK3 (Homo sapiens) (UniProt Q6PHR2); assay: Inhibition of human ULK3 assessed as enzyme activity at 1 uM using myelin basic protein as substrate preincubated for 20 mins followed by [gamma-33P]-ATP addition and measured after 120 mins by radiometric Hot-SpotSM Kinase assay relative to control
T1 sequence (whole entry): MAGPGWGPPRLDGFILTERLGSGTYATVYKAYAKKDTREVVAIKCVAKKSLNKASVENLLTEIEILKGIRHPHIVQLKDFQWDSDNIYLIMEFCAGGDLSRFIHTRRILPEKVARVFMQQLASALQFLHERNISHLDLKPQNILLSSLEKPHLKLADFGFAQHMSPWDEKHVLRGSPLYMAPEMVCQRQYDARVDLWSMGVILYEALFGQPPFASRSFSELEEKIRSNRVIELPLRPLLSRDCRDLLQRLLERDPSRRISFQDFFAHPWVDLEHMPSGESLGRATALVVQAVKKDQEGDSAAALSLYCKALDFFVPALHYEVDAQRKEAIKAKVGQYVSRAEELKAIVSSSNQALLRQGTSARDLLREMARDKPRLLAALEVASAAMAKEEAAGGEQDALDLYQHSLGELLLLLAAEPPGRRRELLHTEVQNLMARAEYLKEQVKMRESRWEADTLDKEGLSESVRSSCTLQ

[5] = target: T2, 3-phosphoinositide-dependent protein kinase 1 (Homo sapiens) (UniProt O15530); assay: Inhibition of human PDK1 assessed as enzyme activity at 1 uM using KTFCGTPEYLAPEVRREPRILSEEEQEMFRDFDYIADWC as substrate preincubated for 20 mins followed by [gamma-33P]-ATP addition and measured after 120 mins by radiometric Hot-SpotSM Kinase assay relative to control
T2 sequence (whole entry): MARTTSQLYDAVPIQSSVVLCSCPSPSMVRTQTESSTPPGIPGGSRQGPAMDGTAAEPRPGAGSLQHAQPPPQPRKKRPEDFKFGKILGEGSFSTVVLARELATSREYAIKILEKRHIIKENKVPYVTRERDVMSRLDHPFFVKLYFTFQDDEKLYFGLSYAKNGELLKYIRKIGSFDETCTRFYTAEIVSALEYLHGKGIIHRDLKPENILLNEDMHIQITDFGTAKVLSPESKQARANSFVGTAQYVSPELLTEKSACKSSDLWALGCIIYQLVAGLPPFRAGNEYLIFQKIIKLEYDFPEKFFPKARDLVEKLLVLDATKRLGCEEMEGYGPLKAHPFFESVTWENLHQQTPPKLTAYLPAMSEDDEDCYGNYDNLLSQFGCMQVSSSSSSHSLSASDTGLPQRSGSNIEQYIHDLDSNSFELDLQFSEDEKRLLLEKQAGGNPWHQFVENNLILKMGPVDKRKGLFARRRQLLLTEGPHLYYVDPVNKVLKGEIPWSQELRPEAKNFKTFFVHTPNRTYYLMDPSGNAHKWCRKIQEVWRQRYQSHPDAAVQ

[6] = target: Cyclin-dependent kinase 5/CDK5 activator 1 (Homo sapiens) (UniProt Q00535+Q15078); assay: Inhibition of human CDK5/p25 assessed as enzyme activity at 1 uM using RB Protein as substrate preincubated for 20 mins followed by [gamma-33P]-ATP addition and measured after 120 mins by radiometric Hot-SpotSM Kinase assay relative to control; format: protein-complex assay
Cyclin-dependent kinase 5/CDK5 activator 1 (Homo sapiens), sequence (Q00535 whole entry): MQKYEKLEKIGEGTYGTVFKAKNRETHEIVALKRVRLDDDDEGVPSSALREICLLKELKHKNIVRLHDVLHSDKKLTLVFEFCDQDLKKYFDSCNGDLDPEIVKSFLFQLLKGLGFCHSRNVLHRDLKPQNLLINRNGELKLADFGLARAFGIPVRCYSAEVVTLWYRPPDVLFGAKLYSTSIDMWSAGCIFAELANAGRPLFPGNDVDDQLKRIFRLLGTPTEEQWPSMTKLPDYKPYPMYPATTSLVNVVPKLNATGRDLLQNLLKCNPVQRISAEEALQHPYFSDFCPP
Cyclin-dependent kinase 5/CDK5 activator 1 (Homo sapiens), sequence (Q15078 99-307 partner limits assumed): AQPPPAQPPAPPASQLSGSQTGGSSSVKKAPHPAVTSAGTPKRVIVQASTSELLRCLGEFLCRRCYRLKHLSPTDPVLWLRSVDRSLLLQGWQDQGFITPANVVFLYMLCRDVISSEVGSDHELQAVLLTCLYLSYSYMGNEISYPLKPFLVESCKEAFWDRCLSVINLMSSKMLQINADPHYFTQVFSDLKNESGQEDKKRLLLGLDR

[7] = target: T3, Testis-specific serine/threonine-protein kinase 1 (Homo sapiens) (UniProt Q9BXA7); assay: Inhibition of human STK22D assessed as enzyme activity at 1 uM using KKKVSRSGLYRSPSMPENLNRPR as substrate preincubated for 20 mins followed by [gamma-33P]-ATP addition and measured after 120 mins by radiometric Hot-SpotSM Kinase assay relative to control
T3 sequence (whole entry): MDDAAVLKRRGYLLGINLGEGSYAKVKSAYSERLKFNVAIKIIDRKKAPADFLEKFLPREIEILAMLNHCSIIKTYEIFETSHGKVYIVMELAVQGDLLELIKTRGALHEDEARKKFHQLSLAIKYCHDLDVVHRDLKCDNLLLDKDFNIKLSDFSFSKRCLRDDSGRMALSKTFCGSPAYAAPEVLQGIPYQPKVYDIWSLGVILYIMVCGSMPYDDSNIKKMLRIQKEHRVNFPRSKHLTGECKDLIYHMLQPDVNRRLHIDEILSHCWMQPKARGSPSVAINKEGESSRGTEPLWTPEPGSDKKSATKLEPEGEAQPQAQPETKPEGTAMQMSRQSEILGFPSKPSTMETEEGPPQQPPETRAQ

CC[C@H](Nc1ncnc2[nH]cnc12)c1nc2cccc(F)c2c(=O)n1-c1ccccc1
Activity [1]: 95.8% | Activity [2]: 97.3% | Activity [3]: 94% | Activity [4]: 89.3% | Activity [5]: 94.6% | Activity [6]: 99.8% | Activity [7]: 98%

C[C@H](Nc1ncnc2nc[nH]c12)c1cc2cccc(Cl)c2c(=O)n1-c1ccccc1
Activity [1]: 97.8% | Activity [2]: 101% | Activity [3]: 96.9% | Activity [4]: 93.2% | Activity [5]: 94.6% | Activity [6]: 92.7% | Activity [7]: 93.9%

CC(C)Oc1ccc(-c2nn([C@@H](C)c3oc4ccc(F)cc4c(=O)c3-c3cccc(F)c3)c3ncnc(N)c23)cc1F [UMBRALISIB]
Activity [1]: 103% | Activity [2]: 98.7% | Activity [3]: 95.3% | Activity [4]: 93.8% | Activity [5]: 92.8% | Activity [6]: 90.3% | Activity [7]: 95.5%
